Laboratory results published in US11730720B2, “ALK5 inhibitors” (THERAVANCE BIOPHARMA R&D IP, LLC, priority 2018, dated 2023).

Experiments:
[1] = molecular target: T1, recombinant human ALK5 (TGF-βR1) protein (Homo sapiens, UniProt P36897); experiment: Biochemical ALK5 (TGF-βR1) assay to measure pKi (LANCE Ultra ULight kinase assay); details: apparent pKi, converted from pIC50 using the Cheng-Prusoff equation
T1 construct: purchased Life Technologies PR9075A
T1 sequence (P36897 34-503): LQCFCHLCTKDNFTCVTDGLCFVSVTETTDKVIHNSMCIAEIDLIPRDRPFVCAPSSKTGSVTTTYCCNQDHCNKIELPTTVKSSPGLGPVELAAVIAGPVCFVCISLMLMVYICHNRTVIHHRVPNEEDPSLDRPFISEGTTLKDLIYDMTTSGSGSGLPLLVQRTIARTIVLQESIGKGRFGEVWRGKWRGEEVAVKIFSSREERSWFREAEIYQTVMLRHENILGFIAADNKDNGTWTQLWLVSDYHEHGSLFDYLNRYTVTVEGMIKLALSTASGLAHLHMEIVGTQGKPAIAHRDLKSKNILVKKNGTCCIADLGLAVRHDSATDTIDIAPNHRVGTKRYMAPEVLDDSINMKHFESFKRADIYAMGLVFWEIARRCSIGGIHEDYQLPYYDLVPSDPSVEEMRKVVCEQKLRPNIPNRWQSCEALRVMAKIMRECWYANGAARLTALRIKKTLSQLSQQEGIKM
In short: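 TR-FRET kinase format: compound dose range 10 μM–25 pM equilibrated 60 min with human ALK5 and ULight-labelled topoisomerase 2α peptide in HEPES/MgCl2 buffer pH 7.5 with DTT. Reaction started with ATP (125 μM stock, 5× final), 60 min at 37° C, stopped with EDTA/Eu-anti-phospho antibody; pKi derived from pIC50 via Cheng-Prusoff.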

[2] = system: TGF-β-stimulated SMAD3 phosphorylation in BEAS-2B cells; experiment: Cellular ALK5 potency assay, inhibition of TGF-β stimulated pSMAD3 formation in BEAS-2B cells; format: cell-based; details: Homo sapiens, inhibition of TGF-β (10 ng/mL) stimulated pSMAD3 formation, 1 hour compound incubation, read-out: BEAS2B pIC50 (converted)
In short: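 Phospho-SMAD3 was quantified by AlphaLISA in lysates of human lung epithelial BEAS-2B cells. Compound was added 1 h (37 °C, HEPES/BSA-supplemented HBSS) before a 30 min challenge with 10 ng/mL TGF-β. Values are pIC50 relative to stimulated cells without compound.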

SMILES	Ki [1]	IC50 [2]
C[C@@H]1CN(CCNc2cnc3ccc(-c4c[nH]nc4-c4cc(Cl)c(F)cc4F)nc3c2)C[C@H](C)N1 [Compound 6-74, 6-[3-(5-chloro-2,4-difluoro-phenyl)-1H-pyrazol-4-yl]-N-[2-[rac-(3R,5S)-3,5-dimethylpiperazin-1-yl]ethyl]-1,5-naphthyridin-3-amine]	0.0398 to 0.316 nM	25.1 to 158 nM
Fc1ccc(Cl)cc1-c1n[nH]cc1-c1ccc2ncc(N3CCC(N4CCCC4)CC3)cc2n1 [Compound 1-44, 2-[3-(5-chloro-2-fluoro-phenyl)-1H-pyrazol-4-yl]-7-(4-pyrrolidin-1-yl-1-piperidyl)-1,5-naphthyridine]	0.0398 to 0.316 nM	25.1 to 158 nM
Fc1ccc(Cl)cc1-c1nc2ccccn2c1-c1ccc2ncc(-c3nc4n(n3)CCNC4)cc2n1 [Compound 3-9, 2-[2-(5-chloro-2-fluoro-phenyl)imidazo[1,2-a]pyridin-3-yl]-7-(5,6,7,8-tetrahydro-[1,2,4]triazolo[1,5-a]pyrazin-2-yl)-1,5-naphthyridine]	0.0398 to 0.316 nM	25.1 to 158 nM
CNCCn1cc(-c2cnc3ccc(-c4c(-c5ccc(F)c(F)c5)[nH]c5cccnc45)nc3c2)cn1 [Compound 27-1, 2-[4-[6-[2-(3,4-difluorophenyl)-1H-pyrrolo[3,2-b]pyridin-3-yl]-1,5-naphthyridin-3-yl]pyrazol-1-yl]-N-methyl-ethanamine]	3.98 to 31.6 nM	25.1 to 158 nM
Fc1ccc(Cl)cc1-c1n[nH]cc1-c1ccc2ncc(NC3CCNCC3)cc2n1 [Compound 1-24, 6-[3-(5-chloro-2-fluoro-phenyl)-1H-pyrazol-4-yl]-N-(4-piperidyl)-1,5-naphthyridin-3-amine]	0.0398 to 0.316 nM	25.1 to 158 nM
Fc1ccc(Cl)cc1-c1n[nH]cc1-c1ccc2ncc(-c3ncc4n3CCNC4)cc2n1 [Compound 1-114, 2-[3-(5-chloro-2-fluoro-phenyl)-1H-pyrazol-4-yl]-7-(5,6,7,8-tetrahydroimidazo[1,5-a]pyrazin-3-yl)-1,5-naphthyridine]	0.0398 to 0.316 nM	25.1 to 158 nM
Fc1ccc(Cl)cc1-c1n[nH]cc1-c1ccc2ncc(NCC3CNCCN3)cc2n1 (stereo not drawn) [Compound 1-26, 6-[3-(5-chloro-2-fluoro-phenyl)-1H-pyrazol-4-yl]-N-(piperazin-2-ylmethyl)-1,5-naphthyridin-3-amine]	0.0398 to 0.316 nM	25.1 to 158 nM

The next lines start with results.

Ki [1]	SMILES	IC50 [2]
0.0398 to 0.316 nM	CN(C)C1CCN(c2cnc3ccc(-c4c[nH]nc4-c4cc(Cl)c(F)cc4F)nc3c2)CC1 [Compound 6-18, 1-[6-[3-(5-chloro-2,4-difluoro-phenyl)-1H-pyrazol-4-yl]-1,5-naphthyridin-3-yl]-N,N-dimethyl-piperidin-4-amine]	25.1 to 158 nM
0.0398 to 0.316 nM	COCc1cccc(-c2n[nH]cc2-c2ccc3ncc(-c4cnn(CCN)c4)cc3n2)c1 [Compound 14-13, 2-[4-[6-[3-[3-(methoxymethyl)phenyl]-1H-pyrazol-4-yl]-1,5-naphthyridin-3-yl]pyrazol-1-yl]ethanamine]	25.1 to 158 nM
0.0398 to 0.316 nM	CNCCn1cc(-c2cnc3ccc(-c4nc[nH]c4-c4cc(Cl)c(F)cc4F)nc3c2)cn1 [Compound 7-4, 2-(4-(6-(5-(5-chloro-2,4-difluorophenyl)-1H-imidazol-4-yl)-1,5-naphthyridin-3-yl)-1H-pyrazol-1-yl)-N-methylethan-1-amine]	25.1 to 158 nM
0.0398 to 0.316 nM	Fc1ccc(Cl)cc1-c1n[nH]cc1-c1ccc2ncc(NCC3CCNC3)cc2n1 (stereo not drawn) [Compound 1-16, 6-[3-(5-chloro-2-fluoro-phenyl)-1H-pyrazol-4-yl]-N-(pyrrolidin-3-ylmethyl)-1,5-naphthyridin-3-amine]	25.1 to 158 nM
≤ 0.0316 nM	Fc1ccc(Cl)cc1-c1n[nH]cc1-c1ccc2ncc(-c3cnc4n3CCN4)cc2n1 [Compound 1-106, 2-[3-(5-chloro-2-fluoro-phenyl)-1H-pyrazol-4-yl]-7-(6,7-dihydro-5H-imidazo[1,2-a]imidazol-3-yl)-1,5-naphthyridine]	25.1 to 158 nM
